Consider twelve compounds from ChEMBL document CHEMBL1136038, “Parallel solution- and solid-phase synthesis of spiropyrrolo-pyrroles as novel neurokinin receptor ligands” (Bioorg Med Chem Lett, 2002).

Structures are written as SMILES.

The target in this test is Substance-P receptor (Homo sapiens, UniProt P25103). Kind of test: Affinity for human Tachykinin receptor 1 expressed in CHO cells. In kind it is cell-based.
Chain of Substance-P receptor (P25103 whole entry): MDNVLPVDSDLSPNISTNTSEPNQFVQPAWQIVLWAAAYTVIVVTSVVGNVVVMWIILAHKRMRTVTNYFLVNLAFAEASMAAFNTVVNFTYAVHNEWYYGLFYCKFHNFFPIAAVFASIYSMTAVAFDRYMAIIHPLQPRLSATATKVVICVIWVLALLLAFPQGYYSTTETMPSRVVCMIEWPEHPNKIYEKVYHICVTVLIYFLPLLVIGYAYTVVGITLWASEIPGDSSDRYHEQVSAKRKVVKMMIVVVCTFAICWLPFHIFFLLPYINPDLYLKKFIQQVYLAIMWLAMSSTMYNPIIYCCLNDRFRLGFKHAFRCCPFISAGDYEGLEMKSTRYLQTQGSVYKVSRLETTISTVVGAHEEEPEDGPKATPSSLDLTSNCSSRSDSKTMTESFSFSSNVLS
Take `O=C1COc2ccc(S(=O)(=O)N3CCC4(CC3)C3C(=O)N(c5ccccc5)C(=O)C3CN4C(=O)c3cc(C(F)(F)F)cc(C(F)(F)F)c3)cc2N1` (configuration not stated): the Ki is 30.9 nM.
Take `CC(C)(C)C(=O)N1CCC2(CC1)C1C(=O)N(c3ccccc3)C(=O)C1CN2C(=O)c1cc(C(F)(F)F)cc(C(F)(F)F)c1` (configuration not stated): the Ki is 302 nM.
The compound `O=C1C2CN(C(=O)c3sc4ccccc4c3Cl)C3(CCNCC3)C2C(=O)N1Cc1cc(C(F)(F)F)cc(C(F)(F)F)c1` (configuration not stated) had a Ki of 501 nM.
Consider `CN1C(=O)C2CN(Cc3cccs3)C3(CCN(C(=O)c4cc(C(F)(F)F)cc(C(F)(F)F)c4)CC3)C2C1=O` (configuration not stated), for which the Ki was 513 nM.
Compound `O=C(c1cc(C(F)(F)F)cc(C(F)(F)F)c1)N1CCC2(CC1)C1C(=O)N(c3ccccc3)C(=O)C1CN2C(=O)CN1CCOCC1` (configuration not stated) gave an inhibition constant Ki of 8.32 nM.
For `CS(=O)(=O)N1CCC2(CC1)C1C(=O)N(Cc3cc(C(F)(F)F)cc(C(F)(F)F)c3)C(=O)C1CN2C(=O)c1ccc2ccccc2c1` (configuration not stated), the affinity, expressed as Ki, was 263 nM.
Regarding `CN1C(=O)C2CN(S(=O)(=O)c3ccc4ccccc4c3)C3(CCN(C(=O)c4cc(C(F)(F)F)cc(C(F)(F)F)c4)CC3)C2C1=O` (configuration not stated), the Ki was 38.9 nM.
For the compound `COc1ccc(OC)c(S(=O)(=O)N2CCC3(CC2)C2C(=O)N(c4ccccc4)C(=O)C2CN3C(=O)c2cc(C(F)(F)F)cc(C(F)(F)F)c2)c1` (configuration not stated), the inhibition constant (Ki) is 30.2 nM.
The value for `Cc1noc(C)c1S(=O)(=O)N1CCC2(CC1)C1C(=O)N(c3ccccc3)C(=O)C1CN2C(=O)c1cc(C(F)(F)F)cc(C(F)(F)F)c1` (configuration not stated) was 75.9 nM; that for `CS(=O)(=O)N1CC2C(=O)N(c3ccccc3)C(=O)C2C12CCN(C(=O)c1cc(C(F)(F)F)cc(C(F)(F)F)c1)CC2` (configuration not stated) was 5.13 nM.
In turn, `COc1ccccc1C(=O)N1CC2C(=O)N(C)C(=O)C2C12CCN(C(=O)c1cc(C(F)(F)F)cc(C(F)(F)F)c1)CC2` (configuration not stated) showed a Ki of 794 nM.
The compound `O=C1C2CN(C(=O)COCc3ccccc3)C3(CCNCC3)C2C(=O)N1Cc1cc(C(F)(F)F)cc(C(F)(F)F)c1` (configuration not stated) gave an inhibition constant Ki of 2290 nM.
